For series [1], the target named is T1, human NMDA receptors GluN1 and GluN2A subunits (GluN2A-containing NMDAR) (Homo sapiens, UniProt Q05586+Q12879).
T1 construct: expressed in transfected cells; host or cells: HEK293 cells, transient liposome transfection of TRE-GluN1-GluN2A, tTA and pCAG-EGFP
As to the kind of experiment: cell-based. The method, then:
On the day before transfection, HEK293 cells were seeded in a 24-well plate with a 10 mm glass sheet, which was coated with polylysine in advance to increase the adhesion capacity of the cells. The plate was added with DMEM medium containing 10% FBS and incubated at 37° C., in 5% CO2 incubator. When the cell fusion reached 60%-70% after 18-24 hours, the plasmid cDNAs containing TRE-GluN1-GluN2A of human GluN1 and GluN2A, tTA, and pCAG-EGFP were transfected into HEK293 by liposome transfection (TRE-GluN1-GluN2A:tTA:pCAG-EGFP is 0.2 μg:0.2 μg:0.02 μg). Before transfection, anew DMEM medium was changed and added with 1 μg/mL Dox (doxycycline) to induce stable expression in the medium, and added with 100 μM D-APV and 10 mM MgCl2 to avoid cell excitatory toxicity caused by NMDAR overexpression. Cells with green fluorescence were selected for electrophysiological recording after transfection for about 24 h.
A glass plate seeded with HEK293 cells was placed in a recording bath and perfused with the extracellular fluid at a rate of 4 mL/min (NaCl 140 mM, KCl 2.8 mM, HEPES 10 mM, CaCl2 1 mM, glycine 0.1 mM, pH 7.2). The channels of the ALA-VC^3 eight-channel pressure perfusion system were filled with extracellular fluid for washing, extracellular fluid containing glutamic acid (100 μM), and extracellular fluid containing glutamic acid and compound to be tested, respectively, with a drop rate of about 1 drop/sec and 10 μL/drop. HEK293 cells with moderate green fluorescence intensity and good adhesion were selected under a fluorescence microscope for recording. The microglass tube of the perfusion system was placed about ten cells away from the cells to be recorded, and the drug was sprayed to the cell surface under the pressure of air (0.02 MPa). The glass electrode was prepared by drawing with a microelectrode drawing instrument with a resistance of 4-6 MΩ and filled with electrode liquid (CsCl 125 mM, HEPES 10 mM, EGTA 11 mM). The microelectrode manipulator was used to slowly push the glass electrode towards the cells. The electrode was attached to the cell membranes and applied with negative pressure, so that a high-resistance seal of more than 1 GΩ was formed between the electrode tip and the cell membrane, and then negative pressure was given to suck through the cell membrane to form a whole-cell recording mode. After the formation of whole-cell recording mode, the cell membrane potential was clamped at −70 mV. The extracellular fluid containing 100 μM glutamic acid, the extracellular fluid containing 100 μM glutamic acid and the compound to be tested, and the extracellular fluid were sprayed to the cell membrane surface sequentially through the perfusion system for 10 s, 20 s, and 10 s to record the NMDA receptor-mediated current and evaluate the inhibitory effect of the compound on GluN2A-containing NMDAR. The experimental process was controlled by pCLAMP 10.6, and the Digidata 1440A digital-to-analog converter was used to complete the generation of stimulus signal and the acquisition of feedback signal.
The ordinate in the figure is the normalized current ratio, which represents the ratio of the current mediated by NMDAR after administration of ketamine and the compound at a concentration of 10 μM to the current mediated by NMDAR before administration. […] Ketamine was used as a positive control.
The inhibitory percentages of the compound according to the present disclosure on NMDAR-mediated current=[…]/NMDAR mediated-current before administration*100%.

Series [2] has as its system mice. As to the kind of experiment: High dose toxicity test (behavior of mice after i.p. administration). Format: in vivo. Also on record: key to Rodent Epileptiform Behavior Scale score (maximum): 0: No abnormal behavior; 1: Unsteady walking/reduced exercise ability/immobility; 2: Generalized clonus/trembling/writhing; 3: The tail is stiff/swinging; 4: Forelimb contractures; 5: Generalized spasms/convulsions; 6: Startle or running convulsive seizures; 7: Generalized tonic-clonic seizures; 8: dead. Conditions: for behavior during observation: observed about one hour; for Rodent Epileptiform Behavior Scale score (maximum): scale 0-8. The method, then: • 1. Experiments were performed in a quiet environment where animals needed to be weighed and acclimatized in the laboratory room for at least 30 min before the experiment. • 2. The compound to be tested was dissolved with 0.9% physiological saline at a concentration of 10 mg/ml. According to the body weight of mice, a corresponding volume of the compound was intraperitoneal injected (i.p.), so as to provide the target dose. • 3. The mice after administration were placed in transparent observation boxes, and the behavioral changes of the mice were recorded by video and observed for about one hour. (Note: During the observation period, if a mouse was lying still on the stomach, the mouse was turned over with your hand to check whether the righting reflex (RR) of the mouse disappeared. If it disappeared, the mouse was in the state of anesthesia, the time of anesthesia in the mouse was recorded). • 4. After one hour of observation, the mice were returned to the feeding cage and the observation boxes were wiped with 75% alcohol so that the information left over from the previous round (e.g. animal stool, urine and other odors) would not affect the next test results. Animals were replaced for the next round to continue the experiment.
Mice died after ketamine administration.
According to Rodent Epileptiform Behavior Scale score, Compound 9 induced epileptiform behavior in mice with a maximum score of 3. […] According to the Rodent Epileptiform Behavior Scale score. Compound 41 and 42 induced epileptiform behavior in mice with a maximum score of 1. […] The epileptiform behavior was scored according to the Rodent Epileptiform Behavior Scale score.

Where [3] appears, read: NMDAR-mediated current, HEK293 cells expressing human GluN1/GluN2A, 100 μM glutamic acid, clamped at −70 mV, compound 10 μM, read-out: current inhibitory percentages.
Setting [4] is: high dose 150 mg/kg bw, formate, 150 mg/kg.
Where [5] appears, read: medium dose 100 mg/kg body weight, formate, 100 mg/kg.
[6] abbreviates: medium dose 100 mg/kg body weight.
[7] abbreviates: medium dose 100 mg/kg body weight, hydrochloride, 100 mg/kg.

Molecules are shown by their SMILES. Entries after “also recorded” stand apart in the source; their conditions may differ. Structures can show the parent of a compound that is named as a salt. Where two headings read alike, the source gives them in different places.

T1 sequence (Q12879 23-1464, other chains not shown): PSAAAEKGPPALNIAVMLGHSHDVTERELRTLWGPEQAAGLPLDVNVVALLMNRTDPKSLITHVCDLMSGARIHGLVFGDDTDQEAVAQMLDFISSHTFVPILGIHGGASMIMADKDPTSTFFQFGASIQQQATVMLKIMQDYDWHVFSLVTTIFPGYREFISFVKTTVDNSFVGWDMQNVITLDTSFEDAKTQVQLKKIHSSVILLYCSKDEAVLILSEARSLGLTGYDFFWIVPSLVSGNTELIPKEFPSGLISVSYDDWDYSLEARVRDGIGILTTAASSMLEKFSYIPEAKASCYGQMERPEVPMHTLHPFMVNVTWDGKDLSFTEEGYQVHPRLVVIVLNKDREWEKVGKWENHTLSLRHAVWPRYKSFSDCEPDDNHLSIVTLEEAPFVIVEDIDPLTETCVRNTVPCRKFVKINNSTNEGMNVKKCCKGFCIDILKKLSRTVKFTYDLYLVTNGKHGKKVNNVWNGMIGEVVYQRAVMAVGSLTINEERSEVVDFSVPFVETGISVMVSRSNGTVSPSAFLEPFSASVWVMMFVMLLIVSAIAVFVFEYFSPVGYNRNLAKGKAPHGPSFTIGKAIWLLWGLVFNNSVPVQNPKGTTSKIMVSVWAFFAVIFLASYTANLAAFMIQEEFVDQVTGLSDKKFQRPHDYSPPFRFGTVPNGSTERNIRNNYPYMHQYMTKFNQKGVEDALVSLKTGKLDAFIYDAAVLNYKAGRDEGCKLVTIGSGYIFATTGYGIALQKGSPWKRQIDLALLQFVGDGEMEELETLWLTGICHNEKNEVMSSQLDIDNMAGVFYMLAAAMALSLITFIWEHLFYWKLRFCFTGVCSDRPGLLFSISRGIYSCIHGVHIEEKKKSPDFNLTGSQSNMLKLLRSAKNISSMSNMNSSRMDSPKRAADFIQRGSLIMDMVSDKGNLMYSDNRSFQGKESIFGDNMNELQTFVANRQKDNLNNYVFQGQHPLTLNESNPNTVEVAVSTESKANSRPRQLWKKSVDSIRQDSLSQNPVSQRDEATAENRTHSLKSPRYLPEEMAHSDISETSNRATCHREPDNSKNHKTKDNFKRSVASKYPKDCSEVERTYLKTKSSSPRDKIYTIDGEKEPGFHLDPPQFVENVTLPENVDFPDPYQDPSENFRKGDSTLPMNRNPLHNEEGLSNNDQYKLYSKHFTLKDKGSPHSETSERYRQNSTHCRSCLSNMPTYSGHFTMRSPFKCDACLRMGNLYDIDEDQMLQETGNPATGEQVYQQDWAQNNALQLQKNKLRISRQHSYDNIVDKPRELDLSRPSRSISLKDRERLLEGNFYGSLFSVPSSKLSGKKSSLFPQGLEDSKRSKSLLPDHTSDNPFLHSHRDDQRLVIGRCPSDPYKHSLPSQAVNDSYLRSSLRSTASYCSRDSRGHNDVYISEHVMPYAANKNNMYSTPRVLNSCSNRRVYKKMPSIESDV

On to `Clc1cccc(C23CCCCC2OCCN3)c1` (racemic) [Compound 9, 4a-(3-chlorophenyl)octahydro-2H-benzo[b][1,4]oxazine formate], for which the inhibition at 10 µM in series [1] (setting [3]) is 88.8%. Besides, the behavior during observation entry in series [2] (setting [4]) was “the state of anesthesia of mice returned to normal after half an hour; also recorded: the state of anesthesia lasted for half an hour”; in series [2] (setting [5]) it was “intermittent shaky waking, lying still on the stomach, and tail stiffness (seizure for about 10 seconds); also recorded: Moderate epilepsy”. The “Rodent Epileptiform Behavior Scale score (maximum)” value in series [2] (setting [6]) is listed as 3.
Regarding `Clc1ccccc1C12CCCCC1OCCN2` (racemic) [Compound 11, 4a-(2-chlorophenyl)octahydro-2H-benzo[b][1,4]oxazine formate], in series [1] (setting [3]), the inhibition at 10 µM was 85%. The behavior during observation result in series [2] (setting [4]) is on record as “the activity reduction in mice lasted for half an hour before returning to normal”; in series [2] (setting [5]), “decreased activity; also recorded: Mild epilepsy”. Further, in series [2] (setting [6]), the “Rodent Epileptiform Behavior Scale score (maximum)” value stood at 1.
As to `Clc1cccc([C@]23CCCC[C@H]2OCCN3)c1` [Compound 41, (4aR,8aR)-4a-(3-chlorophenyl)octahydro-2H-benzo[b][1,4]oxazine hydrochloride], the inhibition at 10 µM in series [1] (setting [3]) amounted to 92.9%. In addition, in series [2] (setting [7]), the behavior during observation entry was “slightly shaky walking; also recorded: Slight shaking”.
Regarding `Clc1cccc([C@@]23CCCC[C@@H]2OCCN3)c1` [Compound 42, (4aS,8aS)-4a-(3-chlorophenyl)octahydro-2H-benzo[b][1,4]oxazine hydrochloride], the inhibition at 10 µM in series [1] (setting [3]) amounted to 105%. Also, in series [2] (setting [7]), the behavior during observation result is recorded as “slightly shaky walking; also recorded: Slight shaking”.
Turning to `Clc1ccccc1[C@]12CCCC[C@H]1OCCN2` [Compound 43, (4aR,8aR)-4a-(2-chlorophenyl)octahydro-2H-benzo[b][1,4]oxazine hydrochloride], in series [2] (setting [7]), the behavior during observation entry is “no obvious abnormalities; also recorded: No abnormal”.
The same measure, in the same setting: the result for `Clc1ccccc1[C@@]12CCCC[C@@H]1OCCN2` [Compound 44, (4aS,8aS)-4a-(2-chlorophenyl)octahydro-2H-benzo[b][1,4]oxazine hydrochloride] reads “no obvious abnormalities; also recorded: No abnormal”.
For `CNC1(c2ccccc2Cl)CCCCC1=O` (centres unmarked) [Ketamine, reference compound], the inhibition at 10 µM in series [1] (HEK293, read-out: current inhibitory percentages) was found to be 102%. Further, the behavior during observation result was “dead” in series [2] (high dose 150 mg/kg bw, 150 mg/kg) and “Mice died” in series [2] (high dose 150 mg/kg bw, listed as ketamine, 150 mg/kg).
